The record followed here is ChEMBL document CHEMBL4049459, “1,4,5-Trisubstituted Imidazole-Based p53-MDM2/MDMX Antagonists with Aliphatic Linkers for Conjugation with Biological Carriers” (J Med Chem, 2017).

Activity calls are given as the source filed them. The calls are words filed in the database; no cut-off is given here.

The subject of assay [1] is U2OS. The experiment in a line: cells. The following applies: Homo sapiens, 24 h.
Description: Cytotoxicity against wild type p53 expressing human U2OS cells assessed as cell growth inhibition after 24 hrs by MTT assay
Assay [2] has as its system U2OS. As to the kind of experiment: Cell cycle arrest in wild type p53 expressing human U2OS cells assessed as decrease in accumulation at S phase at 10 uM after 24 hrs by propidium iodide-based FACS analysis. The assay is classed as functional.
In assay [3] the test system is U2OS. As to the kind of experiment: Cell cycle arrest in wild type p53 expressing human U2OS cells assessed as increase in accumulation at G1 phase at 10 uM after 24 hrs by propidium iodide-based FACS analysis. It counts as functional.
The next assay relates to SAOS-2. The experiment in a line: cells. The following applies: Homo sapiens, SAOS-2, 24 h.
Assay [4] deals with E3 ubiquitin-protein ligase Mdm2 (Homo sapiens) (UniProt Q00987). The experiment in a line: Inhibition of p53-MDM2 interaction in human U2OS cells assessed as p53 activation by measuring increase in p21 expression at 1 uM after 24 hrs by Western blot analysis. The assay is classed as cell-based.
The target is the same in assay [5]. The experiment in a line: Inhibition of p53-MDM2 interaction in human U2OS cells assessed as p53 activation by measuring increase in MDM2 expression at 1 uM after 7 hrs by Western blot analysis. It counts as cell-based.
In assay [6] the test system is U2OS. The experiment in a line: Cell cycle arrest in wild type p53 expressing human U2OS cells assessed as decrease in accumulation at S phase at 1 uM after 24 hrs by propidium iodide-based FACS analysis. It counts as functional.
Assay [7] addresses E3 ubiquitin-protein ligase Mdm2 (Homo sapiens) (UniProt Q00987). As to the kind of experiment: Inhibition of p53-MDM2 interaction in human U2OS cells assessed as p53 activation by measuring p21 accumulation at 1 uM after 7 hrs by Western blot analysis. It counts as cell-based.
Assay [8] shares this target. The experiment in a line: Inhibition of p53-MDM2 interaction in human HCT116 cells assessed as p53 activation by measuring increase in p21 expression at 1 uM after 24 hrs by Western blot analysis. The assay is classed as cell-based.
The target is the same in assay [9]. As to the kind of experiment: Inhibition of p53-MDM2 interaction in human HCT116 cells assessed as p53 activation by measuring increase in MDM2 expression at 1 uM after 7 hrs by Western blot analysis. It counts as cell-based.
Assay [10] shares this target. The experiment in a line: Inhibition of p53-MDM2 interaction in human U2OS cells assessed as p53 accumulation at 1 uM after 7 hrs by Western blot analysis. The assay is classed as cell-based.
The test system of assay [11] is U2OS. As to the kind of experiment: Cell cycle arrest in wild type p53 expressing human U2OS cells assessed as increase in accumulation at G1 phase at 1 uM after 24 hrs by propidium iodide-based FACS analysis. It counts as functional.
For assay [12], the system named is U2OS. As to the kind of experiment: Cell cycle arrest in wild type p53 expressing human U2OS cells assessed as decrease in accumulation at S phase at 5 uM after 24 hrs by propidium iodide-based FACS analysis. It counts as functional.
Assay [13] relates to U2OS. As to the kind of experiment: Cell cycle arrest in wild type p53 expressing human U2OS cells assessed as increase in accumulation at G1 phase at 5 uM after 24 hrs by propidium iodide-based FACS analysis. It counts as functional.
A short description of assay [14]: Selectivity ratio of IC50 for human Saos2 cells to IC50 for human U2OS cells.

E3 ubiquitin-protein ligase Mdm2 (Homo sapiens), sequence (Q00987 whole entry, looked up): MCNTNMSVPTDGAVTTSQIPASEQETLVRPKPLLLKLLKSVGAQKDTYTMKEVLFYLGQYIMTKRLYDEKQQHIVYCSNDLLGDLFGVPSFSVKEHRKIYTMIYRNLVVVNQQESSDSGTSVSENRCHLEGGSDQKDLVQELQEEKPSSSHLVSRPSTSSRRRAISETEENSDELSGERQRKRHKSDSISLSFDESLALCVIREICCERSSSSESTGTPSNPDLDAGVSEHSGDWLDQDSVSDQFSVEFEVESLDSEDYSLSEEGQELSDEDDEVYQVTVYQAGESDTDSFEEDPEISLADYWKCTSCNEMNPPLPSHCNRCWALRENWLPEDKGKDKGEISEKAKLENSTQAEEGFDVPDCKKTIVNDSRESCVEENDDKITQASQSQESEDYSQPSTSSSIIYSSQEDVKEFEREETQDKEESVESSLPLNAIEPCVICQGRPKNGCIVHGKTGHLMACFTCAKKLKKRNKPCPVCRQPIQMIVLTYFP
Description for SAOS-2: Cytotoxicity against p53 deficient human Saos2 cells assessed as cell growth inhibition after 24 hrs by MTT assay

Turning to `O=C(O)c1[nH]c2cc(Cl)ccc2c1-c1c(-c2ccc(F)cc2)ncn1Cc1ccc(Cl)cc1`, the IC50 was determined as 17.4 µM in the assay on U2OS [1] and 55.8 µM in the assay on SAOS-2. In addition, the outcome with U2OS [2] and in the assay with U2OS [3] was Active.
Regarding `COc1cc(C(=O)O)ccc1NC(=O)[C@@H]1N[C@@H](CC(C)(C)C)[C@](C#N)(c2ccc(Cl)cc2F)[C@H]1c1cccc(Cl)c1F`, the inhibition result in assay [4], in [5], in assay [7], in assay [8], in assay [9] and in [10] was “Active” throughout. Further, the result with U2OS [6] and in the assay with U2OS [11] was Active.
In the case of `O=C(OCCN1CCOCC1)c1[nH]c2cc(Cl)ccc2c1-c1c(-c2ccc(F)cc2)ncn1Cc1ccc(Cl)cc1`, the result in the assay on U2OS [12] and with U2OS [13] was Active. Besides, the IC50 with U2OS [1] was 7.27 µM; with SAOS-2 it was 11.7 µM.
As to `COc1ccc(C2=N[C@H](c3ccc(Cl)cc3)[C@H](c3ccc(Cl)cc3)N2C(=O)N2CCNC(=O)C2)c(OC(C)C)c1`, the IC50 in the assay on U2OS [1] stood at 2.66 µM; in the assay on SAOS-2, 20.2 µM. For the same compound, the “Ratio IC50” value in [14] worked out at 7.59.
In the case of `O=C(O)CCC(=O)OCCCCCCOC(=O)c1[nH]c2cc(Cl)ccc2c1-c1c(-c2ccc(F)cc2)ncn1Cc1ccc(Cl)cc1`, the outcome in the assay on U2OS [2] and with U2OS [3] was Active.
Turning to `O=C(O)CCC(=O)NCCCCCCOC(=O)c1[nH]c2cc(Cl)ccc2c1-c1c(-c2ccc(F)cc2)ncn1Cc1ccc(Cl)cc1`, the outcome with U2OS [12] and in the assay with U2OS [13] was Active.
As to `O=C(NCCN1CCOCC1)c1[nH]c2cc(Cl)ccc2c1-c1c(-c2ccc(F)cc2)ncn1Cc1ccc(Cl)cc1`, the result in the assay with U2OS [12], in the assay with U2OS [2], in the assay with U2OS [3] and in the assay on U2OS [13] was Active. Further, the IC50 with U2OS [1] turned out to be 3.67 µM; with SAOS-2, 7.15 µM.
